Measurements published in publication PMC4872749, “EM23, a natural sesquiterpene lactone, targets thioredoxin reductase to activate JNK and cell death pathways in human cervical cancer cells” (Oncotarget, 2016).

Molecular target: T1, thioredoxin reductase (TrxR) (Sus scrofa, UniProt Q9MYY8)
T1 construct: gene TXNRD1; TrxR purified from porcine brains
T1 sequence (Q9MYY8 1-499): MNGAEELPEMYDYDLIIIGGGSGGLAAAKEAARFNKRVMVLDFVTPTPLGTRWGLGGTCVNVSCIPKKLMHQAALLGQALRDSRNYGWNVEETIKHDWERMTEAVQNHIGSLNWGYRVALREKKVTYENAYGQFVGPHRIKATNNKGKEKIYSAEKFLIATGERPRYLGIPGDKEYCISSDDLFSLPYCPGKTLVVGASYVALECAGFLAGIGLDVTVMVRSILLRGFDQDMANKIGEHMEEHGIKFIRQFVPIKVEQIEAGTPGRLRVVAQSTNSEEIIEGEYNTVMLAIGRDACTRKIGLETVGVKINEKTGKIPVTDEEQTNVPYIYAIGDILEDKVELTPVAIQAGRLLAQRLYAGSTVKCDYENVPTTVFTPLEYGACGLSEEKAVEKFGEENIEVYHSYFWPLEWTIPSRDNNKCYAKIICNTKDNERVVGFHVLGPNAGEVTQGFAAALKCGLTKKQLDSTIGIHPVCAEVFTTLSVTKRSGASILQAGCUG
Test: DTNB reduction assay with purified NADPH-reduced TrxR; supported by BIAM labeling and TOF LC/MS of C-terminal tetrapeptide adduct
Type: biochemical

An IC50 of 7.8 µM was found for `C=C(C)C(=O)OC1CC(C)=CC2(OC)C=C(C)C(O2)C2OC(=O)C(=C)C12` (stereo not shown) [EM23] in this work.
